Experimental data from patent US8686224B2, “Plant defense signal peptides” (priority 2005, dated 2014).
Non-standard residues stand in square brackets, D forms with d. Residues, ends and D or L forms follow the SMILES beside them. Primed or numbered codes have the meaning given here. No end group written: not given here. *: point of attachment. APDP″ = photoaffinity cross-linker coupled to Cys through a disulfide bond, [N-]=[N+]=Nc1ccc(C(=O)NCCCCNC(=O)CCS*)c(O)c1; Tyr(3-I) = N[C@@H](Cc1ccc(O)c(I)c1)C(=O)O

Key:
[1] = test system: Arabidopsis suspension cultured cells; test: Alkalinization assay with Arabidopsis suspension cultured cells; type: cell-based, Arabidopsis thaliana
Protocol: For the alkalinization assay, cells suspensions are grown in a volume of 40 ml in a 125 ml flask. Tobacco and Arabidopsis cells are typically grown for 3-5 days before use. Tomato cells are typically grown for 4-7 days before use. Soybean cells are generally grown for 3-7 days before use. Preferably, cells are in mid to log or log phase when they are to be used for the alkalinization assay. A 1 ml pipette tip with the end cut off (to prevent clogging of the tip with the cells) is used to aliquot 1 ml of the cells from the suspension into a well in a 24-well culture cluster plate. The flask is swirled between aliquots to ensure that the cells remain evenly dispersed throughout the cell suspension and an roughly equivalent number of cells is provided to each well. The plate(s) are then shaken at 160 rpm for 1 hour. Small aliquots ([…]) of extracted peptide fractions are then added to the wells. After 20 min, the pH of the cell media is measured and recorded.
Alkalinization Assay. Arabidopsis suspension cells were grown with shaking in the dark in 125 mL flasks, using 40 mL NT media as previously described (Pearce et al. Proc. Natl. Acad. Sci. USA 98:12843-12847, 2001). The cells were transferred weekly (2.5 mL) and used for assays 3-5 days after transfer. One mL aliquots of cells were transferred to wells of 24-well culture plates and allowed to equilibrate for one hour while agitated on a rotary shaker at 160 rpm. Aliquots of 1-10 μL from extracts or fractions eluted from HPLC columns were added to cells and the pH of the media was monitored after 20 min.
Alkalinization assay. Medium alkalinization activity of Arabidopsis suspension cultured cells by AtPep1 analogs was analyzed as previously described for systemin (Pearce et al., Science 253:895-897, 1991), RALF (Pearce et al. Proc. Natl. Acad. Sci. USA 98:12843-12847, 2001), HypSys peptides (Pearce and Ryan. J. Biol. Chem. 278:30044-30050, 2003; Pearce et al., Nature 411:817-820, 2001), and AtPep1 (supra). The alkalinization activity of azido-Cys-AtPep1 were carried out after incubation the analog with cells in darkness for 10 min, when the pH was recorded.
Analogs of AtPep1 from the C-terminus of AtPep1 were synthesized and assayed in the alkalinization assay. One mL aliquots of 4 day old Arabidopsis cells were allowed to equilibrate on an orbital shaker at 180 rpm for one hour. A 10 μL aliquot of each peptide solution was added to the cells. Peptide concentrations of 0.25 nM, 2.5 nM, and 25 nM were tested. After 20 min, the pH of the media was recorded.
The 15-mer from the carboxy-terminus of AtPep1 ([…] (SEQ ID NO: 78)) was substituted with alanine at each position to assess which amino acids were necessary for the alkalinizing activity. […] The set of substituted 15-mer peptides was assayed using four-day-old Arabidopsis cells. […] of each peptide (2.5 pmoles) was added to 1 ml of cells to make a final concentration of 2.5 nM. After 20 min, the pH of the media was recorded. The data is the average of three separate experiments.

AtPEPR1 = biological target: T1, AtPEPR1 (Arabidopsis thaliana, UniProt Q9SSL9); test: Medium alkalinization of transgenic tobacco cells expressing AtPEPR1; type: cell-based; conditions: for change in pH: 2.5 nanomolar
T1 construct: Tobacco cells were transformed with a CaMV-35S-AtPEPR1 gene; expressed in transfected cells; host or cells: tobacco suspension-cultured cells (Agrobacterium-mediated, CaMV 35S promoter)
T1 sequence (Q9SSL9 29-1123): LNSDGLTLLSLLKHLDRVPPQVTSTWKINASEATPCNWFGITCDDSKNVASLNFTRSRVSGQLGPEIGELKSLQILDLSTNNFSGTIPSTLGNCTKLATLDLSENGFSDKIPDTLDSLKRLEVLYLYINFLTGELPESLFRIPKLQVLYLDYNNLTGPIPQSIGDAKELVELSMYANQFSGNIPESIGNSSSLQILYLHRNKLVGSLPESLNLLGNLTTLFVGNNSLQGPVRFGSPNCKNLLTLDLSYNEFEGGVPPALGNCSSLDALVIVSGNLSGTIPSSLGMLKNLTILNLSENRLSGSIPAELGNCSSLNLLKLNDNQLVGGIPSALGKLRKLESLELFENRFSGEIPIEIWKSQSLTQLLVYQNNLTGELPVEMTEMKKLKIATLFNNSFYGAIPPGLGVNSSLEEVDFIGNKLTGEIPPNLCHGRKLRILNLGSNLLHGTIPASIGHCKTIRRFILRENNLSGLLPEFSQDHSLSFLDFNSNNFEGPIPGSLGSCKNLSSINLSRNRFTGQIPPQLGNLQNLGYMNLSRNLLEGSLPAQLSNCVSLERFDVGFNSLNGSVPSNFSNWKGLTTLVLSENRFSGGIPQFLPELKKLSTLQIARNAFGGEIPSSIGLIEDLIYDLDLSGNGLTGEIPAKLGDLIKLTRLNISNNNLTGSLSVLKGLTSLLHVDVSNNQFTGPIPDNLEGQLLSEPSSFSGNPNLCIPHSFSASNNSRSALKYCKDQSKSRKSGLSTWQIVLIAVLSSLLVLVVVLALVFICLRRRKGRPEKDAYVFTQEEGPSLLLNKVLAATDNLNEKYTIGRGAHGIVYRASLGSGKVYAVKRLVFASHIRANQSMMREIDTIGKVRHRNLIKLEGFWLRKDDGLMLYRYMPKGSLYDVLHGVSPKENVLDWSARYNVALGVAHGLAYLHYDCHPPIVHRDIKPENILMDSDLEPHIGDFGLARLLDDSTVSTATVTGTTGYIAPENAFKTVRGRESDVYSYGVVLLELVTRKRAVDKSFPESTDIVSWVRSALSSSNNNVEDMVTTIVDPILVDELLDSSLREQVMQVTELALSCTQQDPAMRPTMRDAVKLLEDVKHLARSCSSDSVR
From the text: Tobacco cells were transformed with a CaMV-35S-AtPEPR1 gene to determine whether the foreign receptor protein was targeted to the cell surface, where, in response to AtPep1, it would activate intracellular signaling to effect the alkalinization of the medium of the transgenic tobacco cells. Expression of the AtPEPR1 gene was confirmed by RT-PCR analysis of RNA from three independently transformed tobacco cell lines. […] AtPep2-7 was also supplied to the transgenic tobacco cells expressing AtPEPR1.
To clarify whether AtPEPR2 binds to AtPep1, the AtPEPR2 coding region was fused to the CaMV 35S promoter and introduced into tobacco suspension-cultured cells by Agrobacterium. Tobacco cells expressing AtPEPR1 and GUS genes were also created as positive and negative controls, respectively. […] These transgenic lines were analyzed for alkalinizing activity as previously described (Pearce et al., Proc. Natl. Acad. Sci. USA 98, 12843-12847, 2001).
The response to all AtPep peptides in transgenic tobacco cells expressing either AtPEPR1 or AtPEPR2 was analyzed by the medium alkalinization assay.

[2] = test system: P. syringae pv. tomato DC3000 (Pst DC3000); test: Pst DC3000 inoculation of Arabidopsis leaves with peptide pre-infiltration; type: in vivo, Pseudomonas syringae; conditions: wild type, cfu/cm^2 4 days after infection; AtPep1 10 nM solution
From the text: The resistance to P. irregulare requires the JA signaling pathway in Arabidopsis (Staswick et al, Plant J. 15: 747-754, 1998), and AtPep peptides induced PDF1.2, a marker gene for the JA response (Huffaker et al., Proc. Natl. Acad. Sci. USA 103: 10098-10103, Huffaker and Ryan, Proc. Natl. Acad. Sci. USA 104: 10732-10736, 2007). […] In order to examine this possibility, Arabidopsis plants were inoculated with P. syringae pv. tomato DC3000 (Pst DC3000) with or without AtPep1 pre-infiltration. Pst DC3000 was extracted from the infected leaves 4 days after infection and colony forming units (cfu/cm^2) were calculated. […] The reduction of Pst DC3000 growth was also not observed when the double mutant, pepr1-1/pepr2-1, was pre-infiltrated with AtPep1. […] Pre-infiltration of AtPep2-6 also attenuated Pst DC3000 growth to different degrees.
To assess the importance of AtPEPR1 and AtPEPR2 in the resistance to Pst DC3000 after infiltration of AtPep1, T-DNA insertional mutants were inoculated. When 1 μM AtPep1 was infiltrated into leaves one day prior to Pst DC3000 inoculation, the size of the necrotic regions were reduced in both wild type and single mutant lines, pepr1-1 and pepr2-1. […] Similar results were obtained when another set of mutant lines, pepr1-2, pepr2-2 and pepr1-2/pepr2-2, was used.

[3] = biological target: T2, AtPep1 receptor (At1g73080, AtPEPR1) (Arabidopsis thaliana, UniProt Q9SSL9); test: Binding assay of 125I1-Tyr-AtPep1 with Arabidopsis suspension cultured cells
T2 sequence (Q9SSL9 29-1123): T1 sequence (Q9SSL9 29-1123)
Protocol: Binding assays. […] The filtered cells were washed three times with 5 mL of cold MS medium containing 3% sucrose, suspended in 1 mL MS medium containing 3% sucrose in a glass test tube, and analyzed for total radioactivity in a gamma-ray counter (Isodata 2020; Isodata Inc., Palatine, Ill.).

OsPEPR1 = test: Medium alkalinization of transgenic tobacco cells expressing OsPEPR1; type: cell-based, rice; conditions: for EC50: read-out: half-maximal activity
OsPEPR1, sequence (as listed by the source): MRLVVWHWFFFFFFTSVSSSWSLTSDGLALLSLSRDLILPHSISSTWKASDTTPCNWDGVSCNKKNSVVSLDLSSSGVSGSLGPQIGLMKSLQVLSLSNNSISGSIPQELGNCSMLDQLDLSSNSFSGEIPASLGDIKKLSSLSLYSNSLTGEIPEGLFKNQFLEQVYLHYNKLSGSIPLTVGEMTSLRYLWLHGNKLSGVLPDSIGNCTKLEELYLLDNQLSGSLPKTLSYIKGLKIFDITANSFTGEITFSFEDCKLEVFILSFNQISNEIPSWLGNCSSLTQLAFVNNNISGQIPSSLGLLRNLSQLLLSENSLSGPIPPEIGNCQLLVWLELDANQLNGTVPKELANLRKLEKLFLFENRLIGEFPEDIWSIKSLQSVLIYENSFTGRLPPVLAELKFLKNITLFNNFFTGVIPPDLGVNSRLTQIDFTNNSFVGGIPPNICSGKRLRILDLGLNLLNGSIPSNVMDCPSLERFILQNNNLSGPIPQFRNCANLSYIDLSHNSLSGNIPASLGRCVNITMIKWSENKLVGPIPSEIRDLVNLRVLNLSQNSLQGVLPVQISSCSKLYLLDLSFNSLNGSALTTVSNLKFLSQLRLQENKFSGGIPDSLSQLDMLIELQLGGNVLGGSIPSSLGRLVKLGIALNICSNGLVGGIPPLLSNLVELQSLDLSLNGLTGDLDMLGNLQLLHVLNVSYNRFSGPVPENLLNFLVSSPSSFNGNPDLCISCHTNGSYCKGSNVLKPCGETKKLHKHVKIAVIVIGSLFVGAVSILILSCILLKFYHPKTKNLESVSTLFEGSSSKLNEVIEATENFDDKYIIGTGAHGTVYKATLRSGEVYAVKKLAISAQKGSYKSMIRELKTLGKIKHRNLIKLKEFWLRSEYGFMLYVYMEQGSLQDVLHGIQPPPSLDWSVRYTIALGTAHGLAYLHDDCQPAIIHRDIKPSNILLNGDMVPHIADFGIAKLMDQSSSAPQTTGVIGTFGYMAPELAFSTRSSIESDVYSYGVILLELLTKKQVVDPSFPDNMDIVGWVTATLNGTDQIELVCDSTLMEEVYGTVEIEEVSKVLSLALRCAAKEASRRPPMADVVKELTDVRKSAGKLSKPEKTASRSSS
From the text: We identified rice homologues of AtPEPR1 in the Rice Annotation Project database (see the website located at www.rapdb.dna.affrc.go.jp). The rice homologues, OsPEPR1 (Os08g0446200) and OsPEPR2 (Os08g0446400), have 60% and 62% amino acid similarities, respectively. The OsPEPR1 has 26 LRRs in the extracellular region, which is the same as AtPEPR1. The OsPEPR2 has a shorter extracellular region with 22 LRRs. Transgenic tobacco cells expressing either OsPEPR1 or OsPEPR2 were created to examine the possibility of receptor binding to monocot peptides. OsPep3a, OsPep3b, OsPep3c, ZmPep1 and ZmPep4a were supplied to suspension cultured transgenic tobacco cells, and medium pH was measured. OsPep3a, OsPep3b, ZmPep1 and ZmPep4a caused medium alkalinization in OsPEPR1 expressing cells with a 1.2 pH unit increase and a half-maximal activity of 0.25 nM.

[4] = Arabidopsis suspension cultured cells, pH of media after 20 min
[5] = AtPEPR1 expressing tobacco cells

azido-Cys-AtPep1: Cys-AtPep1 coupled through a disulfide bond to the photoaffinity cross-linker APDP (C(APDP″)ATKVKAKQRGKEKVSSGRPGQHN)
activity in the alkalinization assay [1, 4]: as fully active as the native peptide

EIKARGKNKTKPTPSSGKGGKHN (EIKARGKNKTKPTPSSGKGGKHN) [AtPep4]
change in pH (AtPEPR1; [5]): did not increase medium pH | alkalinization of the medium (AtPEPR1; [5]): weaker activity

15-mer RGKEKVSSGRPGQHN with Gly at position 9 replaced by Ala; inactive derivative of AtPep1 [Gly to Ala substitution at position 9]
Pst DC3000 growth in leaves after pre-infiltration [2]: not observed | competition with the non-substituted 15-mer for receptor binding [3]: neither of these analogs were able to compete | activity in the alkalinization assay [1, 4]: little activity | EC50 ([1]; Arabidopsis suspension cultured cells, pH of media after 20 min, read-out: half-maximal activity in the alkalinization assay): > 250000 pM

15-mer RGKEKVSSGRPGQHN with Ser at position 7 replaced by Ala (-ASGR-) [Ser to Ala substitution at position 7]
competition with the non-substituted 15-mer for receptor binding [3]: neither of these analogs were able to compete | activity in the alkalinization assay [1, 4]: little activity

VRRRPTTPGRPREGSGGNGGNHH [ZmPep1, VRRRPTTPGRPREGSGGNGGNHH]
medium pH increase (OsPEPR1): 1.2 pH unit | EC50 (OsPEPR1): 250 pM

VSGNVAARKGKQQTSSGKGGGTN (VSGNVAARKGKQQTSSGKGGGTN) [AtPep7]
change in pH (AtPEPR1; [5]): did not increase medium pH | alkalinization of the medium (AtPEPR1; [5]): weaker activity

RRPTPPGGAGPREGSGGRGGVIH [OsPep3b, RRPTPPGGAGPREGSGGRGGVIH]
medium pH increase (OsPEPR1): 1.2 pH unit | EC50 (OsPEPR1): 250 pM

GLPGKKNVLKKSRESSGKPGGTN [AtPep5, GLPGKKNVLKKSRESSGKPGGTN]
EC50 (AtPEPR1): ~250 pM

ITAVLRRRPRPPPYSSGRPGQNN [AtPep6, ITAVLRRRPRPPPYSSGRPGQNN]
EC50 (AtPEPR1): ~250 pM | maximal change (AtPEPR1; [5]): 1.2 pH units

CC(C)[C@H](NC(=O)[C@H](CCCCN)NC(=O)[C@@H](NC(=O)[C@H](C)NC(=O)[C@@H](N)Cc1ccc(O)c(I)c1)[C@@H](C)O)C(=O)N[C@@H](CCCCN)C(=O)N[C@@H](C)C(=O)N[C@@H](CCCCN)C(=O)N[C@@H](CCC(N)=O)C(=O)N[C@@H](CCCNC(=N)N)C(=O)NCC(=O)N[C@@H](CCCCN)C(=O)N[C@@H](CCC(=O)O)C(=O)N[C@@H](CCCCN)C(=O)N[C@H](C(=O)N[C@@H](CO)C(=O)N[C@@H](CO)C(=O)NCC(=O)N[C@@H](CCCNC(=N)N)C(=O)N1CCC[C@H]1C(=O)NCC(=O)N[C@@H](CCC(N)=O)C(=O)N[C@@H](Cc1c[nH]cn1)C(=O)N[C@@H](CC(N)=O)C(=O)O)C(C)C [mono-iodo-Tyr-AtPep1] (H-[Tyr(3-I)]ATKVKAKQRGKEKVSSGRPGQHN-OH)
time to equilibration of binding [3]: ≤ 4 min | peptide concentration saturating the sites ([3]; 10^6 cells/assay): about 0.1 nM | Kd ([3]; Scatchard analysis of the saturation data, Arabidopsis suspension cultured cells): 250 pM | time to maximal binding to Arabidopsis cells ([3]; saturation kinetics): ≤ 10 min | activity in the alkalinization assay [1, 4]: as fully active as AtPep1

SSGRPGQHN
activity in the alkalinization assay [1, 4]: inactive

RGKEKVSSGRPGQHN [Peptide 15-mer]
activity at the lowest concentration tested ([1]; 0.25 nM): substantial activity | activity in the alkalinization assay [1, 4]: nearly as active as the native peptide
